Source: patent publication EP4745135A1 (Gluetacs Therapeutics (Shanghai) Co., Ltd., priority 2023, dated 2025)

Experiments:
[1] = target: T1, human Cereblon WT GST-tagged protein (Homo sapiens, UniProt Q96SW2); test: CRBN-binding affinity, HTRF (CEREBLON BINDING kit); details: for IC50: CRBN binding, HTRF, 3 hours at room temperature, read-out: HTRF IC50; for inhibition at 0.5 µM: read-out: Inhibition Rate at 0.5 µM (%); for inhibition at 2 µM: read-out: Inhibition Rate at 2 µM (%)
T1 construct: purchased CISBIO 64BDCRBNPEH
T1 sequence (Q96SW2 whole entry): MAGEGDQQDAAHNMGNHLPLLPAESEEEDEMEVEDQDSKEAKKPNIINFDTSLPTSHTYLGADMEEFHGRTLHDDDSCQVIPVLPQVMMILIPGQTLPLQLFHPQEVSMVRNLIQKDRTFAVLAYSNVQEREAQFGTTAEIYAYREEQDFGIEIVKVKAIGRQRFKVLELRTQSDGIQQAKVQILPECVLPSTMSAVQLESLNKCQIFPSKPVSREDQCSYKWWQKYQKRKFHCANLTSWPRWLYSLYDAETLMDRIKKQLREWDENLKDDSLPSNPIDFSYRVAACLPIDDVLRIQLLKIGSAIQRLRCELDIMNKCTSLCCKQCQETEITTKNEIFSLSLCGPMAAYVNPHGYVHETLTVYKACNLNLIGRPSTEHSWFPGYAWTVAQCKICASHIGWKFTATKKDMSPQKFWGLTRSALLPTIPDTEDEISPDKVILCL

CK1α = target: T2, CK1α (Homo sapiens, UniProt P48729+Q96SW2); test: Western blot, degradation of substrate protein in hPBMCs; format: cell-based
T2 construct: effects of the compounds of the present disclosure on the expression of target proteins in cells; endogenous in cells; host or cells: human PBMCs (Milecell Biotechnologies)
T2 sequence (P48729 whole entry): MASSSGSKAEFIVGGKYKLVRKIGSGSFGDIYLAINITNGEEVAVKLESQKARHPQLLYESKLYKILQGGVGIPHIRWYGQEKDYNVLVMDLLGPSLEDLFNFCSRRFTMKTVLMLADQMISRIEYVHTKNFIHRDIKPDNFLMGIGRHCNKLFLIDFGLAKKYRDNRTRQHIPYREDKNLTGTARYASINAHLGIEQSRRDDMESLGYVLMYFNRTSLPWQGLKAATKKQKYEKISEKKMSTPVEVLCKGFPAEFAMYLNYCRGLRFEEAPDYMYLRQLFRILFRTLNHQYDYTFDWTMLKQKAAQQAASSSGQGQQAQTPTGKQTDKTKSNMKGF
T2 sequence (Q96SW2 whole entry): as the sequence (Q96SW2 whole entry) above
T2 sequence (Q16531 whole entry partner): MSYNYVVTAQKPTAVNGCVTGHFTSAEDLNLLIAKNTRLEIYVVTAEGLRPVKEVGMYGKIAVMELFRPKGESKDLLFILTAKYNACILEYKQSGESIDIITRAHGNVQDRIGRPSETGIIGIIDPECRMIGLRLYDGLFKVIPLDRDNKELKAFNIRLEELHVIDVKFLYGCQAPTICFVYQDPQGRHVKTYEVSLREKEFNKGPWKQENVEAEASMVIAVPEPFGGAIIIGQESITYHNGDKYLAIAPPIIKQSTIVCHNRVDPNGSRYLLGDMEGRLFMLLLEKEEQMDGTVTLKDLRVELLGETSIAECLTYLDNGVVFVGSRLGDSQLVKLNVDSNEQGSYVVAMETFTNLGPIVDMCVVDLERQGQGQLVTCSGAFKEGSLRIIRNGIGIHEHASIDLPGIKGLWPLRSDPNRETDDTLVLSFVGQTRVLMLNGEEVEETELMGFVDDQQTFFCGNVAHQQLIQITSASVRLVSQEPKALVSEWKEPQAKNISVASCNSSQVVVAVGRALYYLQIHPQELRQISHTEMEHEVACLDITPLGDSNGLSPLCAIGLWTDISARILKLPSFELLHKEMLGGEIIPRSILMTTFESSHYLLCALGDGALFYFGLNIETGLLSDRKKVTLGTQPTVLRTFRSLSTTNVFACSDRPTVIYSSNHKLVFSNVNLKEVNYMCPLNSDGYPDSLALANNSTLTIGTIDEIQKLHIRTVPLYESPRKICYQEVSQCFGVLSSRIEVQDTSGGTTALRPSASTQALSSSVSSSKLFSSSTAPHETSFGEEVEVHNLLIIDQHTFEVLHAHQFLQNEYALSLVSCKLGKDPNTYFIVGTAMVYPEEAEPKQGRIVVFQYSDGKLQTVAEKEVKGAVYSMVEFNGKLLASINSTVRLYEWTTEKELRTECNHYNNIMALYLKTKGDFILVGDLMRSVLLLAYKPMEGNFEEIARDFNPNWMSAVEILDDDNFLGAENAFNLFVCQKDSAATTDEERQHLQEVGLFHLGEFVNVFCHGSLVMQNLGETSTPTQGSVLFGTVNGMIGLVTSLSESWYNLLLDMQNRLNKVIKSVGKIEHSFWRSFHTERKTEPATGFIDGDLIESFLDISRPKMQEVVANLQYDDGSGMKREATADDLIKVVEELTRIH

IKZF2 = target: T3, IKZF2 (Homo sapiens, UniProt Q96SW2+Q9UKS7); test: as above; format: cell-based
T3 construct: effects of the compounds of the present disclosure on the expression of target proteins in cells; endogenous in cells; host or cells: human PBMCs (Milecell Biotechnologies)
T3 sequence (Q9UKS7 whole entry): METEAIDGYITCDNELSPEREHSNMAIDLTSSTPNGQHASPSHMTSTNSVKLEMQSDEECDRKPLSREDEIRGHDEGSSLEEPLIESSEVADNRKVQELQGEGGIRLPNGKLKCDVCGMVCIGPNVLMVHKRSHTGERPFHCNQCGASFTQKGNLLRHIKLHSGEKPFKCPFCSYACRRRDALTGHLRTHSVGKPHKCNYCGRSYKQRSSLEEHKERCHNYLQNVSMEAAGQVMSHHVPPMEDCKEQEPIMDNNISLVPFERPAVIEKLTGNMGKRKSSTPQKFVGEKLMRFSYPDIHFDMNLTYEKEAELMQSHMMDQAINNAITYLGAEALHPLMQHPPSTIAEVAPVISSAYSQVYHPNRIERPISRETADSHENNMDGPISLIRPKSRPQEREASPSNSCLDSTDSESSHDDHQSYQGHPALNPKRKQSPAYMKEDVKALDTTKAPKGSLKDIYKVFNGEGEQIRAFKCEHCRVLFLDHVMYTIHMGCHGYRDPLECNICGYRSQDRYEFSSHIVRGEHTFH
T3 sequence (Q96SW2 whole entry): as the sequence (Q96SW2 whole entry) above
T3 sequence (Q16531 whole entry partner): as the sequence (Q16531 whole entry partner) above

WEE1 = target: T4, WEE1 (Homo sapiens, UniProt P30291+Q96SW2); test: as above; format: cell-based
T4 construct: effects of the compounds of the present disclosure on the expression of target proteins in cells; endogenous in cells; host or cells: human PBMCs (Milecell Biotechnologies)
T4 sequence (P30291 whole entry): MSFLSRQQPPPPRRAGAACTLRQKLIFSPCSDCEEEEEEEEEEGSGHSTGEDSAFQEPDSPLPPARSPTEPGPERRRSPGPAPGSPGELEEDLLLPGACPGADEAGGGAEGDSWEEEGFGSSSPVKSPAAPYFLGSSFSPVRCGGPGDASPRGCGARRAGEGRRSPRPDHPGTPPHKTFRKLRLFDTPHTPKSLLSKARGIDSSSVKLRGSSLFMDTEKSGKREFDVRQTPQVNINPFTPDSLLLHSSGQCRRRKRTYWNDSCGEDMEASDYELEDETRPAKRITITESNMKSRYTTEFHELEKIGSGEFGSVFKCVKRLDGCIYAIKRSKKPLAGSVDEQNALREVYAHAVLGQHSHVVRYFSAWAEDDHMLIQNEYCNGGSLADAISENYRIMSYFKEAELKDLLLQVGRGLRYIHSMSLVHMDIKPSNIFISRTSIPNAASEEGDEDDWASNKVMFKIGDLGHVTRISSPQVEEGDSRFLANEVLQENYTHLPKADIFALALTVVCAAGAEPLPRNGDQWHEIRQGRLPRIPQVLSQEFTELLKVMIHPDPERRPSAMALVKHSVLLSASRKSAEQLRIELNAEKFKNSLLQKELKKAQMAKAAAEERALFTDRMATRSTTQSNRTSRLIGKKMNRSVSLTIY
T4 sequence (Q96SW2 whole entry): as the sequence (Q96SW2 whole entry) above
T4 sequence (Q16531 whole entry partner): as the sequence (Q16531 whole entry partner) above

IKZF1 = target: T5, IKZF1 (Homo sapiens, UniProt Q13422+Q96SW2); test: as above; format: cell-based
T5 construct: effects of the compounds of the present disclosure on the expression of target proteins in cells; endogenous in cells; host or cells: human PBMCs (Milecell Biotechnologies)
T5 sequence (Q13422 whole entry): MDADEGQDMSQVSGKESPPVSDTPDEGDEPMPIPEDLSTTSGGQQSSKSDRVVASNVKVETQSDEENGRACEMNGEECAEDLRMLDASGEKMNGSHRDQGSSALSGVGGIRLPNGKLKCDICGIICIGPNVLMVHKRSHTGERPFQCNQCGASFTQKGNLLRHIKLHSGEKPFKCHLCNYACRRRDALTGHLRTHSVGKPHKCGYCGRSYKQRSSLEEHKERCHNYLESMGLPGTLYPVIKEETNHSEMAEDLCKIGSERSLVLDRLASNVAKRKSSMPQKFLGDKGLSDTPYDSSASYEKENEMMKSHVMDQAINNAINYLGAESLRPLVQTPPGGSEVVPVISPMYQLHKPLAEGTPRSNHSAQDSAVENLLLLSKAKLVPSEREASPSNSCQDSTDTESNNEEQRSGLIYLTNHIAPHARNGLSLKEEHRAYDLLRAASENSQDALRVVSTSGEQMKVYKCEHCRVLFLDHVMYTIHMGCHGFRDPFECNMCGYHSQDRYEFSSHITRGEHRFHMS
T5 sequence (Q96SW2 whole entry): as the sequence (Q96SW2 whole entry) above
T5 sequence (Q16531 whole entry partner): as the sequence (Q16531 whole entry partner) above

IKZF3 = target: T6, IKZF3 (Homo sapiens, UniProt Q96SW2+Q9UKT9); test: as above; format: cell-based
T6 construct: effects of the compounds of the present disclosure on the expression of target proteins in cells; endogenous in cells; host or cells: human PBMCs (Milecell Biotechnologies)
T6 sequence (Q9UKT9 whole entry): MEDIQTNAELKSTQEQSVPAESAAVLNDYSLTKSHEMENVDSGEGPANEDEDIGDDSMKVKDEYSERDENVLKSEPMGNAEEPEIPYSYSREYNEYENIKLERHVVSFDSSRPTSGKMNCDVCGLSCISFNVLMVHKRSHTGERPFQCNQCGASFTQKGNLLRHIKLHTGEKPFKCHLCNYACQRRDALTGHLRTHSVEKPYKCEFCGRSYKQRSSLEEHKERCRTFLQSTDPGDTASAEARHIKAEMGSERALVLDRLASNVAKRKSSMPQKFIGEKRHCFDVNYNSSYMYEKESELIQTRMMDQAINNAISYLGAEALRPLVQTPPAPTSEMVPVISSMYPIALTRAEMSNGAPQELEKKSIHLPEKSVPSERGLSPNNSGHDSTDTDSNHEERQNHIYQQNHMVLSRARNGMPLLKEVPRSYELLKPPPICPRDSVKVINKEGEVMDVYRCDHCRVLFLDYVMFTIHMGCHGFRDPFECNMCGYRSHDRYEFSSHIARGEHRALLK
T6 sequence (Q96SW2 whole entry): as the sequence (Q96SW2 whole entry) above
T6 sequence (Q16531 whole entry partner): as the sequence (Q16531 whole entry partner) above

[2] = tested on: Human multiple myeloma cell (MM.1S); test: Tumor cell proliferation inhibition (CellTiter-Meiluncell luminescent cell viability assay); details: for IC50 / inhibition at 0.01 µM / inhibition at 0.5 µM: Homo sapiens, MM1.S, 96 h; for IC50: read-out: Inhibitory activity (IC50, nM) on tumor cell proliferation, MM.1S; for inhibition at 0.01 µM: read-out: Inhibition Rate at 10 nM (%); for inhibition at 0.5 µM: read-out: Inhibition Rate at 500 nM (%)
Procedure: The tumor cells used herein were cultured in a cell culture medium listed in table 2 at 37°C in an incubator with 5% CO2. Prior to experimentation, all cell lines used were correctly identified by STR profiling, and tested negative for mycoplasma contamination using a mycoplasma detection kit through routine screenings.
The IC50 values of the compounds of the present disclosure (including the compounds in Table 1 and Examples) were determined using the CellTiter-Meiluncell Luminescent Cell Viability Assay Kit from Dalian Meilun Biotech Co., Ltd. The detailed procedure is as follows: Tumor cells were seeded in 96-well cell culture plates at the densities specified in Table 3. On the following day, the test compounds of the present disclosure were subjected to serial dilution. The dilution can be performed according to one of the following two methods: • (1) The first dilution method: The test compounds of the present disclosure (including the compounds in Table 1 and Examples) were subjected to 5-fold serial dilutions starting from a highest concentration of 2000 µM, resulting in a total of 9 concentrations from high to low (2000, 400, 80, 16, 3.2, 0.64, 0.128, 0.0256, 0.00512 µM). Subsequently, 0.5 µL of the test compound dilution was transferred into the 96-well plate containing the cells, with each well containing 100 µL of cell culture medium. […] Into the 96-well plate, the diluted test compounds and corresponding detection reagents were added, resulting in final test compound concentrations of 500 nM and 10 nM, respectively. The experimental procedure is described below using the diluted 2 µM test compound as an example.
0.5 µL of the aforementioned diluted compound of the present disclosure (including the compounds in Table 1 and Examples) was added to the seeded cells in 100 µL of medium, yielding a final test compound concentration of 10 nM. After the cells were treated with the compounds of the present disclosure for a specified period, the cell viability assay reagent was added to the culture medium according to the kit's instructions to determine cell viability. […] All controls were treated using the same procedure as the compounds of the present disclosure. The growth inhibition curves for the compounds of the present disclosure were plotted using Prism GraphPad software, and the IC50 values were calculated therefrom.

GSPT1 = test: Western blot, degradation of substrate protein in hPBMCs; format: cell-based, Human
[3] = Western blot, 24 hours of compound treatment, compounds tested at 50 nM and 500 nM (concentration for the table not stated)
[4] = 24 hours treatment, compounds at 50 nM and 500 nM (concentration behind the class not stated)

SMILES | IC50 [1] [µM] | CK1α substrate protein remaining % (CK1α; [3]) | IKZF2 substrate protein remaining % (IKZF2; [3]) | Wee1 substrate protein remaining % (WEE1; [3]) | IKZF 1 substrate protein remaining % (IKZF1; [3]) | IKZF3 substrate protein remaining % (IKZF3; [3]) | IC50 [2] [nM] | GSPT1 substrate protein remaining % (GSPT1; [3]) | CK1α substrate protein remaining % (CK1α; [4]) | IKZF2 substrate protein remaining % (IKZF2; [4]) | Wee1 substrate protein remaining % (WEE1; [4]) | IKZF 1 substrate protein remaining % (IKZF1; [4]) | IKZF3 substrate protein remaining % (IKZF3; [4]) | inhibition at 0.01 µM [2] [%] | inhibition at 0.5 µM [2] [%] | GSPT1 substrate protein remaining % (GSPT1; [4]) | inhibition at 0.5 µM [1] [%] | inhibition at 2 µM [1] [%] | Inhibition Rate at 10 nM (%) ([2]; MM.1S, 10 nM, 96 hours) [la6]
Cc1ccc(C2CCN(Cc3ccc4c(c3)CN(C3CCC(=O)NC3=O)C4=S)CC2)s1 (stereo not shown) [GT-05112, 3-(5-((4-(5-methylthiophen-2-yl)piperidin-1-yl)methyl)-1-thioxoisoindolin-2-yl)piperidine-2,6-dione] | 0.1 to 0.5 | B (80%< substrate protein remaining %≤ 100%) | B (80%< substrate protein remaining %≤ 100%) | B (80%< substrate protein remaining %≤ 100%) | A (0% ≤ substrate protein remaining % ≤ 80%) | A (0% ≤ substrate protein remaining % ≤ 80%) | 50 to 100 | A (0% ≤ substrate protein remaining % ≤ 80%) | – | – | – | – | – | – | – | – | – | – | –
Cc1cscc1C1CCN(Cc2ccc3c(c2)CN(C2CCC(=O)NC2=O)C3=S)CC1 (stereo not shown) [GT-05146, 3-(5-((4-(4-methylthiophen-3-yl)piperidin-1-yl)methyl)-1-thioxoisoindolin-2-yl)piperidine-2,6-dione] | 0.1 to 0.5 | B (80%< substrate protein remaining %≤ 100%) | B (80%< substrate protein remaining %≤ 100%) | A (0% ≤ substrate protein remaining % ≤ 80%) | A (0% ≤ substrate protein remaining % ≤ 80%) | B (80%< substrate protein remaining %≤ 100%) | 100 to 500 | A (0% ≤ substrate protein remaining % ≤ 80%) | – | – | – | – | – | – | – | – | – | – | –
O=C1CCC(N2Cc3cc(CN4C5CC4CN(c4cccc(Cl)c4Cl)C5)ccc3C2=S)C(=O)N1 (stereo not shown) [GT-05182, 3-(5-((3-(2,3-dichlorophenyl)-3,6-diazabicyclo[3.1.1]heptan-6-yl)methyl)-1-thioxoisoindolin-2-yl)piperidine-2,6-dione] | 0.1 to 0.5 | B (80%< substrate protein remaining %≤ 100%) | B (80%< substrate protein remaining %≤ 100%) | A (0% ≤ substrate protein remaining % ≤ 80%) | B (80%< substrate protein remaining %≤ 100%) | B (80%< substrate protein remaining %≤ 100%) | 100 to 500 | A (0% ≤ substrate protein remaining % ≤ 80%) | – | – | – | – | – | – | – | – | – | – | –
O=C1CCC(N2Cc3cc(CN4C[C@@H]5C[C@H]4CN5c4cccc(Cl)c4Cl)ccc3C2=S)C(=O)N1 (stereo partly drawn) [GT-05183, 3-(5-(((1S,4S)-5-(2,3-dichlorophenyl)-2,5-diazabicyclo[2.2.1]heptan-2-yl)methyl)-1-thioxoisoindolin-2-yl)piperidine-2,6-dione] | 0.1 to 0.5 | B (80%< substrate protein remaining %≤ 100%) | B (80%< substrate protein remaining %≤ 100%) | B (80%< substrate protein remaining %≤ 100%) | B (80%< substrate protein remaining %≤ 100%) | A (0% ≤ substrate protein remaining % ≤ 80%) | 50 to 100 | A (0% ≤ substrate protein remaining % ≤ 80%) | – | – | – | – | – | – | – | – | – | – | –
O=C1CCC(N2Cc3cc(CN4CCC(N5CCc6cc(F)ccc65)CC4)ccc3C2=S)C(=O)N1 (stereo not shown) [GT-05244, 3-(5-((4-(5-fluoroindolin-1-yl)piperidin-1-yl)methyl)-1-thioxoisoindolin-2-yl)piperidine-2,6-dione] | 0.1 to 0.5 | B (80%< substrate protein remaining %≤ 100%) | A (0% ≤ substrate protein remaining % ≤ 80%) | B (80%< substrate protein remaining %≤ 100%) | B (80%< substrate protein remaining %≤ 100%) | B (80%< substrate protein remaining %≤ 100%) | 100 to 500 | A (0% ≤ substrate protein remaining % ≤ 80%) | – | – | – | – | – | – | – | – | – | – | –
O=C1CCC(N2Cc3cc(CN4CC=C(c5ccnc6cc(F)ccc56)CC4)ccc3C2=S)C(=O)N1 (stereo not shown) [GT-05245, 3-(5-((4-(7-fluoroquinolin-4-yl)-3,6-dihydropyridin-1(2H)-yl)methyl)-1-thioxoisoindolin-2-yl)piperidine-2,6-dione] | < 0.1 | B (80%< substrate protein remaining %≤ 100%) | A (0% ≤ substrate protein remaining % ≤ 80%) | A (0% ≤ substrate protein remaining % ≤ 80%) | B (80%< substrate protein remaining %≤ 100%) | A (0% ≤ substrate protein remaining % ≤ 80%) | 10 to 50 | A (0% ≤ substrate protein remaining % ≤ 80%) | – | – | – | – | – | – | – | – | – | – | –
O=C1CCC(N2Cc3cc(CN4CC=C(c5c[nH]c6ncccc56)CC4)ccc3C2=S)C(=O)N1 (stereo not shown) [GT-05248, 3-(5-((4-(1H-pyrrolo[2,3-b]pyridin-3-yl)-3,6-dihydropyridin-1(2H)-yl)methyl)-1-thioxoisoindolin-2-yl)piperidine-2,6-dione] | < 0.1 | B (80%< substrate protein remaining %≤ 100%) | A (0% ≤ substrate protein remaining % ≤ 80%) | A (0% ≤ substrate protein remaining % ≤ 80%) | A (0% ≤ substrate protein remaining % ≤ 80%) | A (0% ≤ substrate protein remaining % ≤ 80%) | 50 to 100 | A (0% ≤ substrate protein remaining % ≤ 80%) | – | – | – | – | – | – | – | – | – | – | –
O=C1CC[C@H](N2Cc3c(OCc4ccc(CN5CCOCC5)cc4)cccc3C2=S)C(=O)N1 [GT-05712, (S)-3-(4-((4-(morpholinomethyl)benzyl)oxy)-1-thioxoisoindolin-2-yl)piperidine-2,6-dione] | < 0.1 | – | – | – | – | – | – | – | B (80%< substrate protein remaining %≤ 100%) | B (80%< substrate protein remaining %≤ 100%) | B (80%< substrate protein remaining %≤ 100%) | A (0% ≤ substrate protein remaining % ≤ 80%) | A (0% ≤ substrate protein remaining % ≤ 80%) | 50 to 60 | 70 to 80 | A (0% ≤ substrate protein remaining % ≤ 80%) | – | – | –
O=C1CCC(N2Cc3c(CN4CCN(C(c5ccccc5)c5cccnc5)CC4)cccc3C2=S)C(=O)N1 (stereo not shown) [GT-08193, 3-(4-((4-(phenyl(pyridin-3-yl)methyl)piperazin-1-yl)methyl)-1-thioxoisoindolin-2-yl)piperidine-2,6-dione] | – | B (80%< substrate protein remaining %≤ 100%) | A (0% ≤ substrate protein remaining % ≤ 80%) | A (0% ≤ substrate protein remaining % ≤ 80%) | B (80%< substrate protein remaining %≤ 100%) | B (80%< substrate protein remaining %≤ 100%) | – | A (0% ≤ substrate protein remaining % ≤ 80%) | – | – | – | – | – | 30 to 40 | 40 to 50 | – | 30 to 40 | 53 to 60 | –
COc1cccc(N2CCN(Cc3ccc4c(c3)CN(C3CCC(=O)NC3=O)C4=S)CC2)c1 (stereo not shown) [GT-08237, 3-(5-((4-(3-methoxyphenyl)piperazin-1-yl)methyl)-1-thioxoisoindolin-2-yl)piperidine-2,6-dione] | – | B (80%< substrate protein remaining %≤ 100%) | B (80%< substrate protein remaining %≤ 100%) | B (80%< substrate protein remaining %≤ 100%) | B (80%< substrate protein remaining %≤ 100%) | B (80%< substrate protein remaining %≤ 100%) | – | A (0% ≤ substrate protein remaining % ≤ 80%) | – | – | – | – | – | – | 40 to 50 | – | 53 to 60 | 80 to 100 | 1
